Measured values reported in article PMC7876106 (Scientific Reports, 2021).

Key:
EBNA1 G4 RNA = assay: FP assay, compound binding to EBNA1 G4 RNA
Experimental: (§1) All the nucleic acids, peptides and chemicals were dissolved in buffer containing 20 mM HEPES pH7.5, 150 mM salt (KCl, NaCl, LiCl) at the stock concentration of 1 mM. For peptide and nucleic acid interactions, 25μL of each nucleic acids with a sequential twofold dilutions starting from 50 μM was added into each well of 96-well plate followed by adding 25μL of 10 nM FITC labeled TRF2 peptide. For compounds and nucleic acid interactions, 20μL of each compounds with a sequential twofold dilutions starting from 50 μM were added into each well of 96-well plate followed by adding 5μL of 20 ng/mL tRNA and 25μL of 10 nM FAM labeled nucleic acids. For inhibition assay, 5μL FITC labeled TRF2 GAR peptide (10 nM final concentration) and 10 μL oligos (5 μM final concentration) were mixed, followed by adding 5μL of each compound with a sequential twofold dilutions starting from 50 μM into each well of 384-well plate. All components were mixed thoroughly, and the plate was incubated at room temperature for 1 h before placing in an Envision Plate Reader for reading at 495/520 nm. All data curves were fitted using Prism 8.0.

TeloDNA and TRF2 complex = assay: FP inhibition assay, TRF2 GAR binding to TeloDNA; conditions: 10 nM peptide, 5 μM oligo
Experimental: as §1

TRF2-TERRA = assay: HTRF assay, disruption of TERRA and TRF2 peptide interaction; type: binding; conditions: compared to BRACO-19
Experimental: Mei et al, 2020 TERRA Requires TRF2 GAR Domain
Homogenous Time Resolved Fluorescence (HTRF) assay
All material including peptide, nucleic acids and compounds were dissolved in buffer containing 20mM HEPES pH7.5 150mM KCl. To measure the direct interaction between peptide and nucleic acids, 5µL of FITC-labeled TRF2 GAR peptide was added into each 384 well with a sequential of 2-fold dilution starting from 200nM, 5µL of 10nM biotin-labeled nucleic acid was then added into the well and fixed with the peptide, 5µL of buffer was added to make each well contain 15µL solution. The plate was incubated at room temperature for 30 minutes, following by adding 5µL of streptavidin-Tb-cryptate (Cisbio, PerkinElmer) and the plate was then incubated at room temperature for another 30 minutes before measured by EnVision plate reader (330/520 nm). To measure the compound disruption on peptide and nucleic acids, 5µL of small molecule was added into each 384 well first with a sequential of 2-fold dilution starting from 5µM, followed by 5µL of 10nM nucleic acid and 100nM peptide and then the plate was incubated at room temperature for 30 minutes. The rest step was similar to the direct binding measurement assay. The curves were analyzed using Prism 8.0. […]
Total RNA was isolated as previously described by using TRIzol reagent (Invitrogen) 1. […] RNA concentration was determined by Nanodrop-2000 (ThermoFisher). […]

G4 telomere DNA = assay: ChIP with BG4 antibody for G4 telomere DNA in LOX cells; type: cell-based, human; conditions: 2 μM, 2 days
Experimental: DNA ChIP assays was performed as described previously 3 with minor modifications. Briefly, 1 x 10^7 LOX cells treated with indicated chemicals (2 µM) for 48 hrs were subject to ChIP analysis and immunoprecipitated DNA was assayed by DNA dot-blot using 32P-labeled (TTAGGG)4 or Alu probe. […]

[1] = tested on: TERRA (unlabelled) (RNA, G4) UUAGGGUUAGGGUUAGGGUUAGGG; assay: circular dichroism; conditions: 150 mM KCl; 20 mM HEPES pH 7.5, 20% PEG8000, 4 °C, 10 μM RNA, mixed 1:1 molar ratio
[2] = tested on: TeloDNA (5'-fluorescein) (DNA, G4) TTAGGGTTAGGGTTAGGGTTAGGG; assay: fluorescence polarization; conditions: 150 mM KCl, NaCl or LiCl (salt not specified); 20 mM HEPES; 20 mM HEPES pH 7.5, room temperature, tRNA competitor added, 10 nM probe; apparent
[3] = tested on: TERRA (HTRF assay) (RNA, G4) UUAGGGUUAGGGUUAGGGUUAGGG; assay: HTRF, disruption of TRF2 peptide complex; conditions: TRF2 GAR peptide displaced
[4] = tested on: TeloDNA (HTRF assay) (DNA, G4) TTAGGGTTAGGGTTAGGGTTAGGG; assay: HTRF, disruption of TRF2 peptide complex; conditions: TRF2 GAR peptide displaced

Row | SMILES | binding to EBNA1 G4 RNA (EBNA1 G4 RNA) | IC50 (TeloDNA and TRF2 complex) | inhibition of TRF2-TERRA by HTRF (TRF2-TERRA) | G4 telomere DNA (BG4 ChIP) relative to PP or PDS treated cells (G4 telomere DNA) | binding [1] | EC50 [2] | IC50 [3] | EC50 (EBNA1 G4 RNA) | IC50 [4]
1 | CCc1c(C)c2cc3nc(cc4nc(cc5c(CC)c(C)c(cc1[nH]2)n5C)C(C)=C4CCC(=O)O)C(CCC(=O)O)=C3C [NMM, N-methyl mesoporphyrin IX] | did not display any binding | 1000 nM | preferential inhibition of TRF2-TERRA | significant reduction in G4 telomere DNA | yes | 4800 nM | 1.7 ± 0.8 nM |  | 
2 | CN(C)c1ccc(Nc2c3ccc(NC(=O)CCN4CCCC4)cc3nc3cc(NC(=O)CCN4CCCC4)ccc23)cc1 [BRACO-19] | high binding affinity | 40 nM |  |  |  | 3900 nM |  | 227 nM | 7.00 ± 0.16 nM
